BindingDB's records for doi:10.1016/s0960-894x(98)00641-6 (Kwansei Gakuin University, 1999)

Test: Compound was tested for inhibitory activity against type II Phospholipase A2 (PLA2) isolated from japanese mamushi (Agkistrodon halys blomhoffii) venom

SMILES | IC50
CCCCCCCCCCCC(=O)N[C@H](CCCC)COP(=O)([O-])OCC[N+](C)(C)C [(2-{[2-((S)-Dodecanoylamino)-hexyloxy]-hydroxy-phosphoryloxy}-ethyl)-trimethyl-ammonium] | 5.3 µM
CCCCCCCCCCCC(=O)N1C(=O)O[C@@H](COP(=O)([O-])OCC[N+](C)(C)C)[C@H]1CCC [{2-[((4R,5S)-3-Dodecanoyl-2-oxo-4-propyl-oxazolidin-5-ylmethoxy)-hydroxy-phosphoryloxy]-ethyl}-trimethyl-ammonium] | 45.8 µM
CCCCCCCCCCCC(=O)N1C(=O)O[C@H](COP(=O)([O-])OCC[N+](C)(C)C)[C@@H]1CCC [{2-[((4S,5R)-3-Dodecanoyl-2-oxo-4-propyl-oxazolidin-5-ylmethoxy)-hydroxy-phosphoryloxy]-ethyl}-trimethyl-ammonium] | 52.9 µM
CCCCCCCCCCCC(=O)N1C(=O)O[C@@H](COP(=O)([O-])OCC[N+](C)(C)C)[C@@H]1CCC [{2-[((4S,5S)-3-Dodecanoyl-2-oxo-4-propyl-oxazolidin-5-ylmethoxy)-hydroxy-phosphoryloxy]-ethyl}-trimethyl-ammonium] | 40.1 µM
CCCCCCCCCCCC(=O)N1C(=O)O[C@H](COP(=O)([O-])OCC[N+](C)(C)C)[C@H]1CCC [{2-[((4R,5S)-3-Dodecanoyl-2-oxo-4-propyl-oxazolidin-5-ylmethoxy)-hydroxy-phosphoryloxy]-ethyl}-trimethyl-ammonium] | 19.8 µM
CCCCCCCCCCCC(=O)N1C(=O)OC[C@@H]1COP(=O)([O-])OCC[N+](C)(C)C [{2-[((R)-3-Dodecanoyl-2-oxo-oxazolidin-4-ylmethoxy)-hydroxy-phosphoryloxy]-ethyl}-trimethyl-ammonium] | 31.3 µM
